Test results: patent US12667546B2, “Methods for manipulating cell state transitions in cancer” (AGENCY FOR SCIENCE, TECHNOLOGY AND RESEARCH, priority 2018, dated 2026)

How the values were obtained:
SUM159 [1] = test: Cell morphology of treated SUM159; assay type: cell-based, human; conditions: bexarotene, TTNPB 1 μM
Procedure: HMLE-Twist-ER cells were generated as described. For EMT-induction, 100 nM of 4-hydroxytamoxifen in ethanol was added to the culture medium every 48 h to induce Twist expression. Control cells were treated with ethanol. MCF7-Slug+Sox9 cells were generated as previously described. HMLE-Zeb1 cells were generated by infection with FUW-Zeb1 and rTTA. Doxycycline was added to the culture medium every 48 h to induce Zeb1 expression. To generate tumorigenic cells from NAMEC8, cells were infected with pWZL-Blast-Ras. MCF7, MCF7-Ras, SUM159 were maintained as previously described. All cell cultures were maintained at 37° C. with 5% CO2.

SUM159 [2] = test: Expression of EMT and lineage markers in SUM159; assay type: cell-based, human
Procedure: (§1) Cells were rinsed twice in ice-cold PBS. Total RNA was extracted using Trizol (Invitrogen) and column-purified with RNeasy kits (Qiagen). cDNA synthesis was performed with 500 ng of total RNA at 37° C. for 2 h using the SuperScript III First-Strand Synthesis System (Thermo Fisher Scientific), and subsequently diluted 5-fold. mRNA levels were measured with gene-specific primers listed below using the ABI Prism 7900HT Sequence Detection System 2.2 (Applied Biosystems). Results were normalized to GAPDH and analyzed using SDS 2.2 software.
Cells were harvested and scraped from culture dishes in ice-cold PBS. They were then centrifuged at 12000 rpm for 5 min at 4° C. The pellets were then snap frozen in liquid nitrogen or lysed in ice-cold RIPA lysis buffer (Thermo Scientific) and left on ice for 30 min. Subsequently, the lysates were centrifuged at 12000 rpm for 10 min at 4° C. The supernatants were then aspirated and placed in fresh tubes. Protein concentrations were determined using Coomaisse Blue. 50-80 μg total protein was mixed with NuPAGE™ LDS sample buffer and heated at 70° C. for 10 min. Samples were loaded into NuPAGE™ 4-12% Bis-Tris gels (precast polyacrylamide gel; Invitrogen™). Gel electrophoresis was done at 200V for 1.5 h and then blotted onto nitrocellulose membranes (Trans-Blot Turbo™ transfer pack; Bio-Rad). […]

[3] = system: BC2.2, BC22.1, BC29.1, MetBR 007-DR; test: EMT and lineage markers in patient-derived triple-negative breast cancer cell lines; assay type: cell-based, human; conditions: patient-derived TNBC cell lines
Procedure: Breast tissue biopsies from cancer patients were obtained from National Cancer Centre Singapore (NCCS) with patients' consent and under an IRB approved protocol (2015/2976). Tissue was digested with 1 mg/ml collagenase IV (Gibco) and 1 mg/ml dispase II (Thermo Fisher Scientific) in F12 media for 2 h while shaking in a 37° C. incubator. Cell suspension was then put through a cell strainer and centrifuged for 10 min at 1500 rpm. Cells were then washed twice and resuspended in media before seeding on irradiated 3T3 feeders as previously described. When confluent, sub-culturing was carried out by first lifting the feeders using 0.15% trypsin for 2 min. […]
as §1
Cells were harvested and scraped from culture dishes in ice-cold PBS. […] Protein concentrations were determined using Coomaisse Blue. […]

NAMEC8 [4] = test: Mammosphere assay, NAMEC8; assay type: cell-based, human; conditions: NAMEC8
Procedure: For mammosphere culture, cells were seeded onto 96-well ultralow-adherence plates at 700 cells/well in Mammocult medium (Stem Cell Technologies) supplemented with 4 μg/ml heparin, 0.5 μg/ml hydrocortisone and 1% methylcellulose. Spheres (>100 μm) were counted at 7-10 days later.

[5] = system: NAMEC8 and SUM159, BC2.2 and BC22.1; test: In vitro measurement of IC50 of 5-FU/PAC in bexarotene-treated cells; assay type: cell-based, human; conditions: bexarotene-treated vs DMSO cells
Description: (§2) Data were normalized to vehicle controls.

NAMEC8 [6] = test: Dose response to Raloxifene HCl of bexarotene-treated cells; assay type: cell-based, human; conditions: bexarotene-treated vs DMSO cells
Description: as §2

SUM159 PACR cells [7] = test: Morphology and EMT/lineage markers in SUM159 PACR cells; assay type: cell-based, human
Procedure: as §1

SUM159 PACR cells [8] = test: Mammosphere assay, SUM159 PACR cells; assay type: cell-based, human
SUM159 [9] = test: Tumor growth of ex vivo pre-treated SUM159 injected subcutaneously; assay type: in vivo, NSG mice; conditions: short-term (14 days) ex vivo treatment before transplantation
Procedure: (§3) All animal experiments were approved by the Agency for Science Technology and Research Singapore-Biological Resource Centre IACUC (Protocol number 140940). For pre-treated SUM159 and MCF7-Ras cells, 1×10^6 cells were suspended in 100 μl media containing 50% matrigel and injected subcutaneously into both flanks of female NSG mice. The NSG mice were checked for tumor by palpation once a week and tumors were harvested when they reached ˜15 mm in diameter. For treatment in NSG mice, 1×10^5 NAMEC8-Ras cells were suspended in 100 μl media containing 50% matrigel and injected subcutaneously into both flanks of NSG mice. The NSG mice were checked for tumor formation by palpation and when tumors were about 3 mm, mice were randomized into two groups: vehicle (5% DMSO in corn oil) and treatment (Bexarotene, 100 mg/kg/day oral dosing). Tumor size was measured every week using Vernier calipers and mice were sacrificed when tumors reached ˜15 mm or after ˜4 weeks of treatment. For patient-derived cells, 2×10^6 cells were injected subcutaneously per site in NSG mice.

MCF7-Ras = test: Tumor growth of ex vivo pre-treated MCF7-Ras injected subcutaneously; assay type: in vivo, NSG mice; conditions: ex vivo treatment before injection
Procedure: as §3

SMILES: C=C(c1ccc(C(=O)O)cc1)c1cc2c(cc1C)C(C)(C)CCC2(C)C [Bexarotene]
- cell morphology (SUM159 [1]): dramatic change in morphology from scattered, spindle and fibroblastic-like cells to an epithelial-like morphology
- expression of EMT and lineage markers / epithelial features (SUM159 [2]): downregulation of mesenchymal signature markers (ZEB1, SERPINE1, FN1, SLUG) and the concomitant gain of epithelial marker CDH1
- expression of EMT and lineage markers [3]: increased the expression of E-cadherin, while reducing SLUG expression, to varying extents
- mammosphere formation after drug withdrawal (NAMEC8 [4]): partial reestablishment of mammosphere-forming ability
- conferred susceptibility to 5-FU or paclitaxel [5]: 4-6 folds
- difference in drug sensitivity to Raloxifene hydrochloride (NAMEC8 [6]): moderate two-fold
- phenotype (morphology, epithelial and luminal markers) (SUM159 PACR cells [7]): changed from a mesenchymal-like to an epithelial-like phenotype
- mammosphere-forming ability (SUM159 PACR cells [8]): reduced mammosphere-forming ability
- tumorigenic potential (SUM159 [9]): severely crippled their tumorigenic potential for up till seven weeks post-transplantation
- tumor cell growth (MCF7-Ras): no impact on the tumor cell growth was observed
